Key:
[1] = system: subjects undergoing cataract extraction with lens replacement (CELR); assay: Phase 2 subjects achieving procedural sedation (RSS 2 or 3 without rescue); format: in vivo, human; conditions: Visit 2 (Day 1), Full Analysis Set
Method: A Phase 2 efficacy and safety study of the MELT-300 formulation was conducted at nine sites with over 300 enrolled subjects. MELT-300 is a sublingual, needle- and opioid-free formulation for procedural sedation during cataract surgery. […] MELT-300 utilizes fast-dissolving delivery technology (Zydis®, Catalent Inc.) to rapidly dissolve the tablet for absorption across the sublingual mucosa.
(§1) The Phase 2 study was factorial-designed, randomized, double-blind, placebo-controlled, and included parallel-cohorts. […] Primary efficacy endpoints included appropriate sedation during the cataract surgery and management of intraoperative pain during the surgery.
Achievement of procedural sedation was evaluated for each subject (see TABLE 19). Success for procedural sedation for this Phase 2 study was defined as achieving target sedation level (Ramsay Sedation Scale (RSS) scale level 2 or 3) at the start of surgery without the need for rescue sedation medication, and no need for intraoperative rescue sedation medication to maintain target sedation level.

[2] = system: subjects undergoing cataract extraction with lens replacement (CELR); assay: Phase 2 mean intraoperative analgesia by the numeric pain rating scale; format: in vivo, human
Method: An average of the available timepoints was also calculated.

[3] = system: subjects undergoing cataract extraction with lens replacement (CELR); assay: Phase 2 subject-rated worst pain during surgery by the numeric pain rating scale; format: in vivo, human; conditions: carry forward
[4] = system: subjects undergoing cataract extraction with lens replacement (CELR); assay: Phase 2 subjects achieving analgesia response (NPRS <4); format: in vivo, human; conditions: Visit 2 (Day 1), observed
Method: (§2) The number of subjects achieving analgesia response (observed) in the full analysis set was determined. Success in analgesia response was defined as NPRS <4 at the available at the available four intraoperative timepoints and a failure otherwise (e.g., any interoperative pain rescue was assumed to be a failure. Results are provided in TABLE 24. The number of subjects completing the surgery is provided in TABLE 25, and the number of subjects completing the surgery without interruption is provided in TABLE 26. For this measure, subjects completing the surgery without interruption (other than rescue medication) due to pain or anxiety were considered successes. The number of subjects requiring rescue sedative medication and those requiring analgesic medication are provided in TABLES 27 and 28, respectively. For all TABLES 24-28, p-Values between pairs of treatments were calculated and are provided.

[5] = system: subjects undergoing cataract extraction with lens replacement (CELR); assay: Phase 2 subjects completing the surgery; format: in vivo, human; conditions: Visit 2 (Day 1); Full Analysis Set
Method: as §2

[6] = system: subjects undergoing cataract extraction with lens replacement (CELR); assay: Phase 2 subjects completing the surgery without interruption; format: in vivo, human; conditions: Visit 2 (Day 1); Full Analysis Set
Method: as §2

[7] = system: subjects undergoing cataract extraction with lens replacement (CELR); assay: Phase 2 subjects requiring rescue sedative medication; format: in vivo, human; conditions: Visit 2 (Day 1)
Method: as §2

[8] = system: subjects undergoing cataract extraction with lens replacement (CELR); assay: Phase 2 subjects requiring rescue analgesic medication; format: in vivo, human; conditions: Visit 2 (Day 1); Full Analysis Set
Method: as §2

[9] = system: subjects undergoing cataract extraction with lens replacement (CELR); assay: Phase 2 subjects wanting study drug again for a second surgery (11-point Likert scale); format: in vivo, human
Text: Post-operation, subjects were asked whether they would want the study drug again for a second surgery using an 11-point Likert scale of 0 (not likely at all) to 10 (extremely likely).

[10] = system: subjects undergoing cataract extraction with lens replacement (CELR); assay: Phase 2 subjects receiving opioid concomitant medication postoperatively; format: in vivo, human
[11] = system: subjects undergoing cataract extraction with lens replacement (CELR); assay: Phase 2 treatment-emergent ocular adverse events (study eye, non-study eye, either eye); conditions: for Eye disorders, % / General disorders and administration site conditions, % / Infections and infestations, % / Injury, poisoning and procedural complications, % / Investigations, %: system organ class
Method: as §1
The study eye (TABLE 31) non-study eye (TABLE 32), or either eye (TABLE 33) was assessed. TEAES were defined as events that started on or after the date of the study drug administration through the end of Visit 4 or early withdrawal. Subjects with one or more adverse event within a level of Medical Dictionary for Regulatory Activities (MedDRA) were counted only once in that level.

[12] = Average of available timepoints, adjusted for site table, carry forward
[13] = Average of available timepoints, carry forward
[14] = Average of available timepoints, observed
[15] = Corneal incision, adjusted for site table, carry forward
[16] = Corneal incision, carry forward
[17] = Insertion of the phacoemulsion probe, adjusted for site table, carry forward
[18] = Insertion of the phacoemulsion probe, carry forward
[19] = Insertion of the phacoemulsion probe, observed
[20] = Insertion of the speculum, adjusted for site table, carry forward
[21] = Insertion of the speculum, carry forward
[22] = Insertion of the speculum, observed
[23] = Insertion of the synthetic replacement lens, adjusted for site table, carry forward
[24] = Insertion of the synthetic replacement lens, carry forward
[25] = Insertion of the synthetic replacement lens, observed
[26] = 11-point Likert scale 0 (not likely at all) to 10 (extremely likely)

## CNC1(c2ccccc2Cl)CCCCC1=O (stereo not drawn) [Ketamine 50 mg]
[1]
  Subjects achieving procedural sedation: No, %: 36.7%
[1]; RSS 2 or 3 without rescue sedation
  Subjects achieving procedural sedation: Yes, %: 63.3%
[2]; Average of available timepoints, adjusted for site (study center covariate), carry forward
  Intraoperative NPRS, LS Mean: 1.89
[2]; [12]
  Intraoperative NPRS, mean: 2.16
  Intraoperative NPRS, median: 1.75
[2]; [13]
  Intraoperative NPRS, mean: 2.16
  Intraoperative NPRS, median: 1.75
[2]; Average of available timepoints, carry forward, repeated measures model
  Intraoperative NPRS, LS Mean: 2.16
[2]; [14]
  Intraoperative NPRS, mean: 2.00
  Intraoperative NPRS, median: 1.75
[2]; Average of available timepoints, observed, repeated measures model
  Intraoperative NPRS, LS Mean: 2.22
[2]; [15]
  Intraoperative NPRS, mean: 1.8
  Intraoperative NPRS, median: 1.0
[2]; [16]
  Intraoperative NPRS, mean: 1.8
  Intraoperative NPRS, median: 1.0
[2]; Corneal incision, observed
  Intraoperative NPRS, mean: 1.7
  Intraoperative NPRS, median: 1.0
[2]; [17]
  Intraoperative NPRS, mean: 2.5
  Intraoperative NPRS, median: 2.0
[2]; [18]
  Intraoperative NPRS, mean: 2.5
  Intraoperative NPRS, median: 2.0
[2]; [19]
  Intraoperative NPRS, mean: 2.1
  Intraoperative NPRS, median: 2.0
[2]; [20]
  Intraoperative NPRS, mean: 1.1
  Intraoperative NPRS, median: 1.0
[2]; [21]
  Intraoperative NPRS, mean: 1.1
  Intraoperative NPRS, median: 1.0
[2]; [22]
  Intraoperative NPRS, mean: 1.1
  Intraoperative NPRS, median: 1.0
[2]; [23]
  Intraoperative NPRS, mean: 3.3
  Intraoperative NPRS, median: 3.0
[2]; [24]
  Intraoperative NPRS, mean: 3.3
  Intraoperative NPRS, median: 3.0
[2]; [25]
  Intraoperative NPRS, mean: 2.5
  Intraoperative NPRS, median: 2.0
[2]; adjusted for site, carry forward
  Intraoperative NPRS, LS Mean Difference versus placebo: −0.30
[2]; carry forward, repeated measures model
  Intraoperative NPRS, LS Mean Difference versus placebo: −0.32
[2]; observed, repeated measures model
  Intraoperative NPRS, LS Mean Difference versus placebo: −0.26
[3]
  Worst Pain During Surgery, Mean Difference versus placebo: −0.33
[3]; Full Analysis Set
  Worst Pain During Surgery (NPRS), mean: 3.7
  Worst Pain During Surgery (NPRS), median: 4.0
[4]; NPRS <4 at four intraoperative timepoints
  Subjects achieving analgesia response: Yes, %: 49.4%
[4]
  Subjects achieving analgesia response: No, %: 50.6%
[5]
  Subjects completing the surgery: No, %: 0 (0) %
  Subjects completing the surgery: Yes, %: 100.0%
[6]
  Subjects completing the surgery without interruption: No, %: (6.3) %
  Subjects completing the surgery without interruption: Yes, %: (93.7) %
[7]; Full Analysis Set
  Subjects requiring rescue sedative medication: No, %: (63.3) %
  Subjects requiring rescue sedative medication: Yes, %: (36.7) %
[7]; Intraoperatively
  Subjects requiring rescue sedative medication: Intraoperatively, %: (6.3) %
[7]; Pre-operatively
  Subjects requiring rescue sedative medication: Pre-operatively, %: (30.4) %
[8]
  Subjects requiring rescue analgesic medication: No, %: (59.5) %
  Subjects requiring rescue analgesic medication: Yes, %: (40.5) %
[9]; [26]
  Want Study Drug Again, mean: 7.6
  Want Study Drug Again, median: 10.0
[9]; unpaired t-test
  Want Study Drug Again, Mean Difference versus placebo: −0.05
[10]; Day 2
  Received Postoperative Opioid on Day 2: No, %: (100.0) %
  Received Postoperative Opioid on Day 2: Yes, %: (0.0) %
[10]; Day 2-8
  Received Postoperative Opioid on Day 2-8: No, %: (100.0) %
  Received Postoperative Opioid on Day 2-8: Yes, %: (0.0) %
[11]; Either Eye
  Cataract operation complication, %: (0) %
  Conjunctivitis bacterial, %: (1.2) %
  Corneal abrasion, %: (0) %
  Corneal oedema, %: (1.2) %
  Endophthalmitis, %: (1.2) %
  Eye pain, %: (3.5) %
  Foreign body sensation in eyes, %: (0) %
  Intraocular pressure increased, %: (1.2) %
  Ocular hypertension, %: (1.2) %
  Pain, %: (0) %
  Paracentesis eye, %: (0) %
  Procedural pain, %: (0) %
  Subjects with Any Treatment-Emergent Ocular AEs, %: (8.2) %
  Vision blurred, %: (0) %
  Eye disorders, %: (5.9) %
  General disorders and administration site conditions, %: (0) %
  Infections and infestations, %: (2.4) %
  Injury, poisoning and procedural complications, %: (0) %
  Investigations, %: (1.2) %
[11]; Non-Study Eye
  Conjunctivitis bacterial, %: (1.2) %
  Eye pain, %: (0) %
  Subjects with Any Treatment-Emergent Ocular AEs, %: (1.2) %
  Vision blurred, %: (0) %
  Eye disorders, %: (0) %
  Infections and infestations, %: (1.2) %
[11]; Study Eye
  Cataract operation complication, %: (0) %
  Corneal abrasion, %: (0) %
  Corneal oedema, %: (1.2) %
  Endophthalmitis, %: (1.2) %
  Eye pain, %: (3.5) %
  Foreign body sensation in eyes, %: (0) %
  Intraocular pressure increased, %: (1.2) %
  Ocular hypertension, %: (1.2) %
  Pain, %: (0) %
  Procedural pain, %: (0) %
  Subjects with Any Treatment-Emergent Ocular AEs, %: (7.1) %
  Eye disorders, %: (5.9) %
  General disorders and administration site conditions, %: (0) %
  Infections and infestations, %: (1.2) %
  Injury, poisoning and procedural complications, %: (0) %
  Investigations, %: (1.2) %
[11]; printed in the Non-Study Eye table
  Paracentesis eye, %: (0) %

Source: patent publication US20240207285A1 (Melt Pharmaceuticals, Inc., priority 2022, published 2024)
